Consider twelve compounds from patent US20090017103A1, “Antisense oligonucleotides for prevention of metastasis formation of cancer cells” (priority 2003, published 2009).

Holding throughout (assay type): cell-based, human
One data set deals with osteonectin. Briefly: Western blot of osteonectin expression after exposure to ASOs. The conditions noted are these: single exposure, lipofectamine, 10 μM. A general note: A western blot detects proteins with antibodies after separation by electrophoresis.
For another data set, the system named is bone sialoprotein II. Briefly: Western blot of bone sialoprotein II expression after exposure to ASOs. The conditions noted are these: 10 μM.
The test system of data set [1] is MDA-MB-231 breast cancer cells. In words: Clonogenicity assay (colony formation). The conditions noted are these: for inhibition of colony formation (colony growth inhibition): single exposure. The protocol: For determining the response of MDA-MB-231 colony formation to exposure with antisense oligonucleotides and erucylphospho-NNN-trimethylpropanolamine (ErPC3) the following procedure was used. MDA-MB-231 cells were treated for various periods of time (see below), harvested and counted. Cells (5000) were then transferred into semi-solid medium containing 0.8t RPMI-methylcellulose and 30% FBS. Cells were plated onto 3.5 cm Petri-dishes (1 ml/dish) (NUNC, Wiesbaden, Germany) and usual cell culture conditions (37° C., 5% CO2 in humidified air) were applied. Colony formation (clusters of 30 or more cells) was visualized by staining with 3-[4,5-dimethylthiazol-2-yl]-2,5-diphenyltetrazolium-bromide (MTT; Serva, Heidelberg, Germany) and the resulting dark blue colonies were scored by an inverted microscope after 5-7 days. At least three dishes per treatment protocol were used.
Pending on the duration of treatment, 1×10^5-3×10^5 cells were transferred onto 6 well plates (Nunc, Wiesbaden, Germany) and grown for 24 h. For transfection, ASO stock solutions were prepared in medium without FBS. According to the protocol of the manufacturer, the respective ASO stock solution was mixed with lipofectamine to allow ASO-liposome complexes to form. To 200 μl medium containing ASO quantities resulting in 10 μM (Western blot and in vivo model) and in 5, 10, or 20 μM (clonogenicity assay) final ASO-concentrations, an equal volume of medium without FBS was added containing 5, 10, or 20 μl lipofectamine, respectively. In addition to the ASO treatment, a NSO control (20 μM final concentration with 20 μl lipofectamine) and a lipofectamine control (20 μl) were used. […] After 12 h the medium was changed, and cells were further grown for 48-72 h. In the case of a sequential combination treatment this first cycle was repeated with the respective combination partner.
The alkylphosphocholine ErPC3 was synthesized and provided by Prof. H. Eibl (MPI of Biophysical Chemistry, Göttingen, FRG). For treating MDA-MB-231 cells, ErPC3 which was kept as stock solution in ethanol and PBS (10 mM; ratio of diluents 1:1; V:V), was diluted in PBS resulting in final concentrations of 10, 14, and 20 μM. The medium containing ErPC3 was changed after 24 h in all experiments and the cells were further grown for 48-72 h without ErPC3 (for details of sequential exposure see below).
Sequential combination treatment consisted of two or three treatment cycles. The two cycle treatment started either with the ASO and was followed by ErPC3 or was performed with the reverse sequence. The three cycle treatment started either with two cycles of ASO followed by ErPC3 or an initial exposure to ErPC3 was followed by two cycles with an ASO.
Colony counts are presented as mean with corresponding standard deviation. For comparison of incidences between treatment groups the x^2 test was used and for comparison of the lesion sizes the Kruskal-Wallis test was applied. P values≦0.05 were considered significant. Predicted theoretical values of combinations were calculated according to the equation: C=a×b/100, where a and b are colony counts in percent of untreated control obtained in response to single agents. For each concentration applied theoretical values were calculated and compared with the real value of the combination. In addition, isobologram and multiple drug effect analysis was examined by a suitable program (CalcuSyn, Biosoft, Ferguson, USA) to study the nature of the interaction observed. For this purpose, the dose-effect curve for each drug alone was determined based on the experimental observations using the median-effect principle; the combination index (CI) for each combination was then calculated according to the following equation:
CI=(D)1/(Dx)1+(D)2/(Dx)2+(D1)×(D2)/(Dx)1×(Dx)2
where (D)1 and (D)2 are the doses of drug 1 and drug 2 that have x effect when used in combination and (Dx)1 and (Dx)2 are the doses of drug 1 and drug 2 that have the same x effect when used alone. […]

Where [2] appears, read: MDA-MB231^F (growing without FBS).
[3] abbreviates: MDA-MB231, single exposure, electroporation.
Setting [4] is: MDA-MB231, single exposure, lipofectamine.
[5] abbreviates: MDA-MB231^F (growing without FBS), single exposure, lipofectamine.
Setting [6] is: MDA-MB435s, single exposure, lipofectamine.
The mark [7] stands for this setting: MDA-MB231, twofold exposure, lipofectamine.

Marks after values point to notes of the source that are not given here.

For “5′- TGTACTTGTCATTGTCCAGG-3′ (antisense TGTACTTGTCATTGTCCAGG; all phosphorothioate, sugars by position and methylation of C not given here) [ASO-ON-7]”, the “osteonectin expression in relation to untreated control (100%)” value is given as 50% in the data set on osteonectin (MDA-MB231), 32% in the data set on osteonectin (setting [2]) and 64% in the data set on osteonectin (MDA-MB435s).

Regarding “5′-ACTGGTGGTGGTAGTAATTC-3′ (antisense ACTGGTGGTGGTAGTAATTC; all phosphorothioate, sugars by position and methylation of C not given here) [ASO-BSPII-9]”, the “bone sialoprotein II expression in relation to untreated control (100%)” value (shortened to “bone sialoprotein II expression … (100%)”) is 46% in the data set on bone sialoprotein II (setting [3]), 35% in the data set on bone sialoprotein II (setting [4]), 84% in the data set on bone sialoprotein II (setting [5]) and 49% in the data set on bone sialoprotein II (setting [6]).

For “5′-AGATCCAGGCCCTCATGGTG -3′ (antisense AGATCCAGGCCCTCATGGTG; all phosphorothioate, sugars by position and methylation of C not given here) [ASO-ON-1]”, the entries for the “osteonectin expression in relation to untreated control (100%)” value in the data set on osteonectin (MDA-MB231), in the data set with osteonectin (setting [2]) and with osteonectin (MDA-MB435s) were 39^3) %, 44% and 46%, respectively.

In the case of “5′-ATTCTTCATTGTTTTCTCCT-3 (antisense ATTCTTCATTGTTTTCTCCT; all phosphorothioate, sugars by position and methylation of C not given here) [ASO-BSPII-4]”, the “bone sialoprotein II expression … (100%)” value with bone sialoprotein II (setting [3]) is 55%; with bone sialoprotein II (setting [4]), 73%; with bone sialoprotein II (setting [5]), 109%; in the data set with bone sialoprotein II (setting [6]), 26%.

In the case of “5′-ATTTTGGTGATTGCTTCCTC-3′ (antisense ATTTTGGTGATTGCTTCCTC; all phosphorothioate, sugars by position and methylation of C not given here) [ASO-BSPII-2]”, the “bone sialoprotein II expression … (100%)” value is given as 94% in the data set on bone sialoprotein II (setting [3]), 38% in the data set with bone sialoprotein II (setting [4]), 94% in the data set with bone sialoprotein II (setting [5]) and 26% in the data set on bone sialoprotein II (setting [6]).

With “5′-CTGCCTTCCGGTCTCTGTGG-3′ (antisense CTGCCTTCCGGTCTCTGTGG; all phosphorothioate, sugars by position and methylation of C not given here) [ASO-BSPII-8]”, the “bone sialoprotein II expression … (100%)” value is 34% with bone sialoprotein II (setting [3]); 62% in the data set on bone sialoprotein II (setting [4]); 25% in the data set with bone sialoprotein II (setting [7]); 101% in the data set with bone sialoprotein II (setting [5]); 32% in the data set on bone sialoprotein II (setting [6]).

For the compound “5′-CTTCATCACTTTCCTTCTCT-3′ (antisense CTTCATCACTTTCCTTCTCT; all phosphorothioate, sugars by position and methylation of C not given here) [ASO-BSPII-5]”, the “bone sialoprotein II expression … (100%)” value in the data set on bone sialoprotein II (setting [3]) came to 63%; in the data set with bone sialoprotein II (setting [4]), 27%; with bone sialoprotein II (setting [7]) it was 46%; in the data set on bone sialoprotein II (setting [5]), 101%; with bone sialoprotein II (setting [6]), 41%.

With “5′-CTTCATTGTTTTCTCCTTCA-3′ (antisense CTTCATTGTTTTCTCCTTCA; all phosphorothioate, sugars by position and methylation of C not given here) [ASO-BSPII-3]”, the “bone sialoprotein II expression … (100%)” value in the data set with bone sialoprotein II (setting [3]) turned out to be 44%; in the data set on bone sialoprotein II (setting [4]) it was 97%; in the data set on bone sialoprotein II (setting [5]), 93%; in the data set with bone sialoprotein II (setting [6]) it was 22%.

Take “5′-TCACTGGTGGTGGTAGTAAT-3′ (antisense TCACTGGTGGTGGTAGTAAT; all phosphorothioate, sugars by position and methylation of C not given here) [ASO-BSPII-10]”: the “bone sialoprotein II expression … (100%)” value came out at 40% in the data set on bone sialoprotein II (setting [3]), 33% in the data set with bone sialoprotein II (setting [4]), 30% in the data set with bone sialoprotein II (setting [5]) and 39% with bone sialoprotein II (setting [6]).

As for “5′-TGATTGCTTCCTCTGGCAGT-3′ (antisense TGATTGCTTCCTCTGGCAGT; all phosphorothioate, sugars by position and methylation of C not given here) [ASO-BSPII-1]”, the “bone sialoprotein II expression … (100%)” value in the data set on bone sialoprotein II (setting [3]) is on record as 78%; in the data set with bone sialoprotein II (setting [4]), 45%; in the data set with bone sialoprotein II (setting [7]), 19^2) %; in the data set with bone sialoprotein II (setting [5]), 58%; in the data set on bone sialoprotein II (setting [6]), 16%.

On to “5′-TTCCGGTCTCTGTGGTGTCT-3′ [ASO-BSPII-7]”, for which the “bone sialoprotein II expression … (100%)” value in the data set with bone sialoprotein II (setting [3]) is recorded as 25%; with bone sialoprotein II (setting [4]) it was 58%; in the data set with bone sialoprotein II (setting [7]), 22%; in the data set on bone sialoprotein II (setting [5]), 37%; in the data set on bone sialoprotein II (setting [6]), 51%.

As for `CCCCCCCC/C=C\CCCCCCCCCCCCOP(=O)([O-])OCCC[N+](C)(C)C` [ErPC3, Erucylphospho-NNN-trimethylpropanolamine, reference compound], the “% Control” value amounted to 52% in data set [1] (Exp. III a, 14 μM); 89% in data set [1] (Experiment I, single treatment, 10 μM); 55% in data set [1] (Experiment I, single treatment, 14 μM); 22% in data set [1] (Experiment I, single treatment, 20 μM); 88% in data set [1] (Experiment II, single treatment, 10 μM); 55% in data set [1] (Experiment II, single treatment, 14 μM). Further, the “% Control” value is recorded as 25% in data set [1] (Experiment II, single treatment, 20 μM) and 59% in data set [1] (Experiment III b, 14 μM). Further, the Mean colony no. in data set [1] (Exp. III a, 14 μM, control 456) is reported as 239^5); in data set [1] (Experiment I, single treatment, 10 μM, control 778), 691^8); in data set [1] (Experiment I, single treatment, 14 μM, control 778) it was 425^7); in data set [1] (Experiment I, single treatment, 20 μM, control 778) it was 169; in data set [1] (Experiment II, single treatment, 10 μM, control 705), 621^8); in data set [1] (Experiment II, single treatment, 14 μM, control 705), 385^7). Also, the Mean colony no. in data set [1] (Experiment II, single treatment, 20 μM, control 705) is on record as 173; in data set [1] (Experiment III b, 14 μM, control 517), 311^5). The “inhibition of colony formation (colony growth inhibition)” value in data set [1] (10 μM) is given as 11%; in data set [1] (14 μM), 45%; in data set [1] (20 μM), 78%.
